# Reference: patent US10308608B2, “Histone deacetylase inhibitors” (BIOMARIN PHARMACEUTICAL INC., priority 2015, dated 2019)
# Where a name gives a salt, the structure may show the parent alone.
# Tested on: Frataxin (FXN) mRNA
# Assay: Effect of HDAC inhibitors on frataxin (FXN) mRNA expression, qRT-PCR in compound-treated iPSC derived neuronal cells
# Format: cell-based
# Settings: iPSC, 24 h, compound concentration of 0.625 μM, 24 h incubation, read-out: FXN mRNA fold induction
# Experimental: Effect of HDAC Inhibitors on Frataxin (FXN) mRNA Expression
# Method: mRNA quantification of compound-treated iPSC derived neuronal cells Neuronal stem cells were cultured in Neurobasal A medium (Life technologies #10888022) supplemented with N2, B27 (Life technologies #17502-048 and #17504-044), L-glutamine (Life technologies #25030081), supplemented with 20 ng/ml EGF (R&D Systems #236-EG) and 20 ng/ml bFGF (BioPioneer # HRP-0011). Neuronal differentiation was initiated by removing growth factors and culturing cells in Neurobasal A with N2 and B27. Cells were allowed to differentiate for 16 days. HDAC inhibitory compound was then added and incubate for 24 h. RNA isolation was performed using the RNeasy Plus mini kit (QIAgen #74134) using a QIAcube instrument per manufacturer's instructions. qRT-PCR was performed using qScript One-Step SYBR Green qRT-PCR Kit (Quanta Biosciences 170-8893BR) with the following conditions: 20 minutes at 50° C., 5 minutes at 95° C., and then 40 cycles of 20 seconds at 95° C., 20 seconds at 55° C., 30 seconds at 72° C. The primer sequences to detect expression of FXN were: 5′-[…]-3′ and 5′-[…]-3′.
# The data for the following compounds, for FXN mRNA fold induction at a compound concentration of 0.625 μM are shown in Table 1, where A<1, 1<B<2, 2<C<3, 3<D<5, E>5.
row,SMILES,fold induction at 0.625 µM
1,"Nc1ccccc1NC(=O)c1ccc(NC2CNC2)cc1 [Compound 86, N-(2-aminophenyl)-4-(azetidin-3-ylamino)benzamide trihydrochloride]",2 to 3
2,"CN1CC(Nc2ccc(C(=O)Nc3ccccc3N)cc2)C1 [Compound 87, N-(2-aminophenyl)-4-((1-methylazetidin-3-yl)amino)benzamide tris(2,2,2-trifluoroacetate)]",2 to 3
3,"CC(C)CN1CC(Nc2ccc(C(=O)Nc3ccccc3N)cc2)C1 [Compound 88, N-(2-aminophenyl)-4-((1-isobutylazetidin-3-yl)amino)benzamide trihydrochloride]",1 to 2
4,"CC(C)(O)CN1CC(Nc2ccc(C(=O)Nc3ccccc3N)cc2)C1 [Compound 89, N-(2-aminophenyl)-4-((1-(2-hydroxy-2-methylpropyl)azetidin-3-yl)amino)benzamide]",1 to 2
5,"CC(C)(C)CN1CC(Nc2ccc(C(=O)Nc3ccccc3N)cc2)C1 [Compound 90, N-(2-aminophenyl)-4-((1-neopentylazetidin-3-yl)amino)benzamide]",2 to 3
6,"Nc1ccccc1NC(=O)c1ccc(NC2CN(CC3CC3)C2)cc1 [Compound 91, N-(2-aminophenyl)-4-((1-(cyclopropylmethyl)azetidin-3-yl)amino)benzamide trihydrochloride]",1 to 2
7,"CC1(CN2CC(Nc3ccc(C(=O)Nc4ccccc4N)cc3)C2)CC1 [Compound 92, N-(2-aminophenyl)-4-((1-((1-methylcyclopropyl)methyl)azetidin-3-yl)amino)benzamide]",2 to 3
8,"Nc1ccccc1NC(=O)c1ccc(NC2CN(CC3CCCCC3)C2)cc1 [Compound 93, N-(2-aminophenyl)-4-((1-(cyclohexylmethyl)azetidin-3-yl)amino)benzamide]",2 to 3
9,"Nc1ccccc1NC(=O)c1ccc(N[C@H]2CCNC2)cc1 [Compound 94, (S)-N-(2-aminophenyl)-4-(pyrrolidin-3-ylamino)benzamide trihydrochloride]",1 to 2
10,"CN1CC[C@H](Nc2ccc(C(=O)Nc3ccccc3N)cc2)C1 [Compound 95, (S)-N-(2-aminophenyl)-4-((1-methylpyrrolidin-3-yl)amino)benzamide]",1 to 2
11,"CC(C)CN1CC[C@H](Nc2ccc(C(=O)Nc3ccccc3N)cc2)C1 [Compound 96, (S)-N-(2-aminophenyl)-4-((1-isobutylpyrrolidin-3-yl)amino)benzamide]",1 to 2
12,"CC(C)(O)CN1CC[C@H](Nc2ccc(C(=O)Nc3ccccc3N)cc2)C1 [Compound 97, (S)-N-(2-aminophenyl)-4-((1-(2-hydroxy-2-methylpropyl)pyrrolidin-3-yl)amino)benzamide]",1 to 2
13,"CC(C)(C)CN1CC[C@H](Nc2ccc(C(=O)Nc3ccccc3N)cc2)C1 [Compound 98, (S)-N-(2-aminophenyl)-4-((1-neopentylpyrrolidin-3-yl)amino)benzamide trihydrochloride]",2 to 3
14,"Nc1ccccc1NC(=O)c1ccc(N[C@H]2CCN(CC3CC3)C2)cc1 [Compound 99, (S)-N-(2-aminophenyl)-4-((1-(cyclopropylmethyl)pyrrolidin-3-yl)amino)benzamide trihydrochloride]",2 to 3
15,"CC1(CN2CC[C@H](Nc3ccc(C(=O)Nc4ccccc4N)cc3)C2)CC1 [Compound 100, (S)-N-(2-aminophenyl)-4-((1-((1-methylcyclopropyl)methyl)pyrrolidin-3-yl)amino)benzamide]",1 to 2
16,"Nc1ccccc1NC(=O)c1ccc(N[C@H]2CCN(CC3CCCCC3)C2)cc1 [Compound 101, (S)-N-(2-aminophenyl)-4-((1-(cyclohexylmethyl)pyrrolidin-3-yl)amino)benzamide]",2 to 3
17,"Nc1ccccc1NC(=O)c1ccc(N[C@@H]2CCNC2)cc1 [Compound 102, (R)—N-(2-aminophenyl)-4-(pyrrolidin-3-ylamino)benzamide Trihydrochloride]",2 to 3
18,"CN1CC[C@@H](Nc2ccc(C(=O)Nc3ccccc3N)cc2)C1 [Compound 103, (R)-N-(2-aminophenyl)-4-((1-methylpyrrolidin-3-yl)amino)benzamide]",1 to 2
19,"CC(C)CN1CC[C@@H](Nc2ccc(C(=O)Nc3ccccc3N)cc2)C1 [Compound 104, (R)-N-(2-aminophenyl)-4-((1-isobutylpyrrolidin-3-yl)amino)benzamide trihydrochloride]",2 to 3
20,"CC(C)(O)CN1CC[C@@H](Nc2ccc(C(=O)Nc3ccccc3N)cc2)C1 [Compound 105, (R)-N-(2-aminophenyl)-4-((1-(2-hydroxy-2-methylpropyl)pyrrolidin-3-yl)amino)benzamide trihydrochloride]",2 to 3
21,"CC(C)(C)CN1CC[C@@H](Nc2ccc(C(=O)Nc3ccccc3N)cc2)C1 [Compound 106, (R)-N-(2-aminophenyl)-4-((1-neopentylpyrrolidin-3-yl)amino)benzamide]",2 to 3
22,"Nc1ccccc1NC(=O)c1ccc(N[C@@H]2CCN(CC3CC3)C2)cc1 [Compound 107, (R)-N-(2-aminophenyl)-4-((1-(cyclopropylmethyl)pyrrolidin-3-yl)amino)benzamide trihydrochloride]",2 to 3
23,"CC1(CN2CC[C@@H](Nc3ccc(C(=O)Nc4ccccc4N)cc3)C2)CC1 [Compound 108, (R)-N-(2-aminophenyl)-4-((1-((1-methylcyclopropyl)methyl)pyrrolidin-3-yl)amino)benzamide]",2 to 3
24,"Nc1ccccc1NC(=O)c1ccc(N[C@@H]2CCN(CC3CCCCC3)C2)cc1 [Compound 109, (R)-N-(2-aminophenyl)-4-((1-(cyclohexylmethyl)pyrrolidin-3-yl)amino)benzamide]",2 to 3
25,"Nc1ccccc1NC(=O)c1ccc(NC2CCNCC2)cc1 [Compound 110, dihydrochloride]",2 to 3
26,"CN1CCC(Nc2ccc(C(=O)Nc3ccccc3N)cc2)CC1 [Compound 111, N-(2-aminophenyl)-4-((1-methylpiperidin-4-yl)amino)benzamide]",1 to 2
27,"CC(C)CN1CCC(Nc2ccc(C(=O)Nc3ccccc3N)cc2)CC1 [Compound 112, N-(2-aminophenyl)-4-((1-isobutylpiperidin-4-yl)amino)benzamide trihydrochloride]",1 to 2
28,"CC1(CN2CCC(Nc3ccc(C(=O)Nc4ccccc4N)cc3)CC2)CC1 [Compound 113, N-(2-aminophenyl)-4-((1-((1-methylcyclopropyl)methyl)piperidin-4-yl)amino)benzamide trihydrochloride]",2 to 3
29,"Nc1ccccc1NC(=O)c1ccc(NC2CCN(CC3CCCCC3)CC2)cc1 [Compound 114, N-(2-aminophenyl)-4-((1-(cyclohexylmethyl)piperidin-4-yl)amino)benzamide]",1 to 2
30,"Nc1ccccc1NC(=O)c1ccc(OC2CCCN(C3CC3)CC2)cc1 (stereo not shown) [Compound 123, N-(2-aminophenyl)-4-((1-cyclopropylazepan-4-yl)oxy)benzamide benzamide dihydrochloride]",1 to 2

# Same assay, conditions: iPSC, 24 h, read-out: FXN mRNA fold induction, compound concentration of 0.625 μM, 24 h incubation
row,SMILES,fold induction at 0.625 µM
1,"Nc1ccccc1NC(=O)c1ccc(NC2CC3CCC(C2)N3)cc1 (stereo not shown) [Compound 115, 4-((8-azabicyclo[3.2.1]octan-3-yl)amino)-N-(2-aminophenyl)benzamide]",1 to 2
2,"CN1C2CCC1CC(Nc1ccc(C(=O)Nc3ccccc3N)cc1)C2 (stereo not shown) [Compound 116, N-(2-aminophenyl)-4-((8-methyl-8-azabicyclo[3.2.1]octan-3-yl)amino)benzamide trihydrochloride]",2 to 3
3,"CC(C)CN1C2CCC1CC(Nc1ccc(C(=O)Nc3ccccc3N)cc1)C2 (stereo not shown) [Compound 117, N-(2-aminophenyl)-4-((8-isobutyl-8-azabicyclo[3.2.1]octan-3-yl)amino)benzamide]",2 to 3
4,"CC(C)(O)CN1C2CCC1CC(Nc1ccc(C(=O)Nc3ccccc3N)cc1)C2 (stereo not shown) [Compound 118, N-(2-aminophenyl)-4-((8-(2-hydroxy-2-methylpropyl)-8-azabicyclo[3.2.1]octan-3-yl)amino)benzamide]",2 to 3
5,"CC(C)(C)CN1C2CCC1CC(Nc1ccc(C(=O)Nc3ccccc3N)cc1)C2 (stereo not shown) [Compound 119, N-(2-aminophenyl)-4-((8-neopentyl-8-azabicyclo[3.2.1]octan-3-yl)amino)benzamide]",2 to 3
6,"Nc1ccccc1NC(=O)c1ccc(NC2CC3CCC(C2)N3CC2CC2)cc1 (stereo not shown) [Compound 120, N-(2-aminophenyl)-4-((8-(cyclopropylmethyl)-8-azabicyclo[3.2.1]octan-3-yl)amino)benzamide trihydrochloride]",1 to 2
7,"Nc1ccccc1NC(=O)c1ccc(NC2CC3CCC(C2)N3CC2CCCCC2)cc1 (stereo not shown) [Compound 122, N-(2-aminophenyl)-4-((8-(cyclohexylmethyl)-8-azabicyclo[3.2.1]octan-3-yl)amino)benzamide]",2 to 3
